Columns and labels:
Type in all cases: functional, cell-based
HT-29 = experiment: Cytotoxicity against human HT-29 cells
P388 = experiment: Cytotoxicity against mouse P388 cells
A549 = experiment: Cytotoxicity against human A549 cells

Measured: IC50

CO[C@@]1(C)CCC(C(C)C)=C[C@@H]2[C@H]1CC[C@]2(C)O
> 1 µg/mL: HT-29 | P388 | A549

CC(=O)CCCC(C)(C)C(=O)CC/C(C)=C/CC[C@@]1(C)CC[C@H]([C@H](C)C(=O)O)OO1 [AIKUPIKOXIDE A]
> 1 µg/mL: HT-29 | P388 | A549

C=C1CCCC(C)(C)C1(O)CC[C@@]1(C)CC[C@@H]([C@H](C)C(=O)OC)OO1 (stereo not given in full) [AIKUPIKOXIDE B]
> 1 µg/mL: HT-29 | P388 | A549

C=C(CCCC(C)(C)O)C(=O)CC[C@@]1(C)CC[C@@H]([C@H](C)C(=O)OC)OO1 [AIKUPIKOXIDE D]
> 1 µg/mL: HT-29 | P388 | A549

COC(=O)[C@@H](C)[C@@H]1CC[C@](C)(CCC(=O)C(C)(C)CCCC(C)=O)OO1 [DIACARPEROXIDE B]
> 1 µg/mL: HT-29 | P388 | A549

— ChEMBL document CHEMBL1156363, “Cytotoxic cyclic norterpene peroxides from a Red Sea sponge Diacarnus erythraenus” (J Nat Prod, 2001)
